Measurements published in the NIST ThermoML archive (doi:10.1021/je700287u).

Assay: xn = mol fraction of the nth substance listed
Conditions: Liquid

CN(CCO)CCO [N-methyldiethanolamine] + O
Conditions | mass density [kg/m3]
333.04 K, 10996 kPa, x1 = 0.0369 | 1000
333.04 K, 11991 kPa, x1 = 0.0369 | 1000.4
333.04 K, 12996 kPa, x1 = 0.0369 | 1000.8
333.04 K, 13988 kPa, x1 = 0.0369 | 1001.2
333.04 K, 14991 kPa, x1 = 0.0369 | 1001.6
333.04 K, 15994 kPa, x1 = 0.0369 | 1002
333.04 K, 16992 kPa, x1 = 0.0369 | 1002.4
333.04 K, 17985 kPa, x1 = 0.0369 | 1002.8
333.04 K, 18990 kPa, x1 = 0.0369 | 1003.2
333.04 K, 19977 kPa, x1 = 0.0369 | 1003.6
333.05 K, 1013 kPa, x1 = 0.0893 | 1013
333.05 K, 2006 kPa, x1 = 0.0893 | 1013.4
333.05 K, 2994 kPa, x1 = 0.0893 | 1013.8
333.05 K, 4031 kPa, x1 = 0.0893 | 1014.2
333.05 K, 4999 kPa, x1 = 0.0893 | 1014.6
333.05 K, 6000 kPa, x1 = 0.0893 | 1015
333.05 K, 6995 kPa, x1 = 0.0893 | 1015.4
333.05 K, 8005 kPa, x1 = 0.0893 | 1015.8
333.05 K, 9000 kPa, x1 = 0.0893 | 1016.2
333.05 K, 9992 kPa, x1 = 0.0893 | 1016.5
333.05 K, 10993 kPa, x1 = 0.0893 | 1017
333.05 K, 11998 kPa, x1 = 0.0893 | 1017.3
333.05 K, 13000 kPa, x1 = 0.0893 | 1017.7
333.05 K, 14008 kPa, x1 = 0.0893 | 1018.1
333.05 K, 14983 kPa, x1 = 0.0893 | 1018.5
333.05 K, 16002 kPa, x1 = 0.0893 | 1018.9
333.05 K, 17032 kPa, x1 = 0.0893 | 1019.3
333.05 K, 17945 kPa, x1 = 0.0893 | 1019.6
333.05 K, 18989 kPa, x1 = 0.0893 | 1020
333.05 K, 19994 kPa, x1 = 0.0893 | 1020.4
342.91 K, 1008 kPa, x1 = 0.1302 | 1011.7
342.91 K, 1996 kPa, x1 = 0.1302 | 1012.1
342.91 K, 3044 kPa, x1 = 0.1302 | 1012.5
342.91 K, 4015 kPa, x1 = 0.1302 | 1012.9
342.91 K, 5006 kPa, x1 = 0.1302 | 1013.4
342.91 K, 5995 kPa, x1 = 0.1302 | 1013.8
342.91 K, 7010 kPa, x1 = 0.1302 | 1014.2
342.91 K, 8001 kPa, x1 = 0.1302 | 1014.6
342.91 K, 8996 kPa, x1 = 0.1302 | 1015
342.91 K, 9995 kPa, x1 = 0.1302 | 1015.5
342.91 K, 10992 kPa, x1 = 0.1302 | 1015.9
342.91 K, 12029 kPa, x1 = 0.1302 | 1016.3
342.91 K, 12993 kPa, x1 = 0.1302 | 1016.7
342.91 K, 13996 kPa, x1 = 0.1302 | 1017.1
342.91 K, 14997 kPa, x1 = 0.1302 | 1017.5
342.91 K, 15998 kPa, x1 = 0.1302 | 1017.9
342.91 K, 16997 kPa, x1 = 0.1302 | 1018.3
342.91 K, 18033 kPa, x1 = 0.1302 | 1018.8
342.91 K, 18977 kPa, x1 = 0.1302 | 1019.2
342.91 K, 19980 kPa, x1 = 0.1302 | 1019.6
342.94 K, 1029 kPa, x1 = 0.0893 | 1005.9
342.94 K, 1996 kPa, x1 = 0.0893 | 1006.3
342.94 K, 3018 kPa, x1 = 0.0893 | 1006.7
342.94 K, 3995 kPa, x1 = 0.0893 | 1007.1
342.94 K, 5000 kPa, x1 = 0.0893 | 1007.5
342.94 K, 5992 kPa, x1 = 0.0893 | 1007.9
342.94 K, 7008 kPa, x1 = 0.0893 | 1008.3
342.94 K, 7994 kPa, x1 = 0.0893 | 1008.8
342.94 K, 9001 kPa, x1 = 0.0893 | 1009.1
342.94 K, 9994 kPa, x1 = 0.0893 | 1009.6
342.94 K, 10983 kPa, x1 = 0.0893 | 1010
342.94 K, 12000 kPa, x1 = 0.0893 | 1010.4
342.94 K, 12996 kPa, x1 = 0.0893 | 1010.8
342.94 K, 14014 kPa, x1 = 0.0893 | 1011.2
342.94 K, 14994 kPa, x1 = 0.0893 | 1011.6
342.94 K, 15989 kPa, x1 = 0.0893 | 1012
342.94 K, 16991 kPa, x1 = 0.0893 | 1012.4
342.94 K, 17989 kPa, x1 = 0.0893 | 1012.8
342.94 K, 18984 kPa, x1 = 0.0893 | 1013.2
342.94 K, 19988 kPa, x1 = 0.0893 | 1013.6
342.96 K, 1042 kPa, x1 = 0.0607 | 999.5
342.96 K, 2006 kPa, x1 = 0.0607 | 999.8
342.96 K, 3028 kPa, x1 = 0.0607 | 1000.3
342.96 K, 4013 kPa, x1 = 0.0607 | 1000.7
342.96 K, 5003 kPa, x1 = 0.0607 | 1001.2
342.96 K, 5994 kPa, x1 = 0.0607 | 1001.6
342.96 K, 7004 kPa, x1 = 0.0607 | 1002
342.96 K, 8063 kPa, x1 = 0.0607 | 1002.5
342.96 K, 9140 kPa, x1 = 0.0607 | 1003
342.96 K, 10022 kPa, x1 = 0.0607 | 1003.4
342.96 K, 11032 kPa, x1 = 0.0607 | 1003.7
342.96 K, 11997 kPa, x1 = 0.0607 | 1004.1
342.96 K, 13009 kPa, x1 = 0.0607 | 1004.5
342.96 K, 14001 kPa, x1 = 0.0607 | 1004.9
342.96 K, 15005 kPa, x1 = 0.0607 | 1005.3
342.96 K, 16002 kPa, x1 = 0.0607 | 1005.7
342.96 K, 17011 kPa, x1 = 0.0607 | 1006.1
342.96 K, 17988 kPa, x1 = 0.0607 | 1006.5
342.96 K, 18992 kPa, x1 = 0.0607 | 1006.9
342.96 K, 20154 kPa, x1 = 0.0607 | 1007.3
352.84 K, 1009 kPa, x1 = 0.1302 | 1004
352.84 K, 2026 kPa, x1 = 0.1302 | 1004.3
352.84 K, 3005 kPa, x1 = 0.1302 | 1004.8
352.84 K, 4006 kPa, x1 = 0.1302 | 1005.3
352.84 K, 5004 kPa, x1 = 0.1302 | 1005.7
352.84 K, 5993 kPa, x1 = 0.1302 | 1006.1
352.84 K, 6991 kPa, x1 = 0.1302 | 1006.5
352.84 K, 7992 kPa, x1 = 0.1302 | 1006.9
352.84 K, 8994 kPa, x1 = 0.1302 | 1007.4
352.84 K, 9980 kPa, x1 = 0.1302 | 1007.8
352.84 K, 10971 kPa, x1 = 0.1302 | 1008.2
352.84 K, 11987 kPa, x1 = 0.1302 | 1008.7
352.84 K, 13040 kPa, x1 = 0.1302 | 1009.1
352.84 K, 13997 kPa, x1 = 0.1302 | 1009.5
352.84 K, 14981 kPa, x1 = 0.1302 | 1009.9
